Results taken from US8343458B2, “Probes for in vivo targeting of active cysteine proteases” (The Board of Trustees of the Leland Stanford Junior …, priority 2008, dated 2013).

What was measured:
[1] = Octanol/water partition coefficient; assay type: physicochemical; details: octanol / PBS pH 7.4, repeated 3 times
Description: Octanol/water partition coefficient. To determine the lipophilicity of ^64Cu-Z-FK(DOTA)-AOMK, approximately 370 kBq of ^64Cu-labeled complex in 500 μl of PBS (pH 7.4) was added to 500 μl of octanol in an eppendorf microcentrifuge tube. The resulting biphasic system was mixed vigorously for 10 min and left at room temperature for another 60 min. The two phases were then separated by centrifugation at 2000 g for 5 min (model 5415R Eppendorf microcentrifuge; Brinkman, Westbury, N.Y.). From each layer, an aliquot of 100 μl was removed and counted in a γ-counter (Packard Instruments). The partition coefficient (log P) was then calculated as a ratio of counts in the octanol fraction to the counts in the water fraction. The experiment was repeated 3 times. The lipophilicity of the probe affects its in vivo pharmacokinetics, and should be modest (˜0), with hydrophobic and hydrophilic groups present. For further details, see Lin et al., “Role of Pharmacokinetics and Metabolism in Drug Discovery and Development,” Pharmacological Reviews, Vol. 49, Issue 4, 403-449, December 1997.

C2C12/Ras tumor = experiment: MicroPET imaging of C2C12/Ras tumor-bearing mice; assay type: in vivo, mouse; details: 2 and 24 hours post injection, 5.55 MBq i.v.
Source text: FIG. 3 is a composite photograph showing mouse uptake of labeled probe, i.e., a series of photographs of imaged mice. For purposes of reproduction, the image is converted to black and white and reversed. Lightest to darkest is a range between 0% ID (injected dose)/g and 1% ID/g. […] Arrows indicate location of tumors.
We performed micro PET imaging of mice bearing the MDA-MB-435 and C2C12/Ras tumors. The static microPET images (5 or 10-min scan, three tumor bearing mice were used for each study) of ^64Cu-Z-FK(DOTA)-AOMK are illustrated in coronal images of the subcutaneously implanted tumor-bearing mice (FIG. 3). […] The tumor, indicated by the arrow, is not clearly illuminated.
PET imaging of tumor-bearing mice is performed on a microPET R4 rodent model scanner (Concorde Microsystems Inc, Knoxyille, Tenn.). The mice bearing C2C12/Ras and MDA-MB-435 tumors were injected with 5.55 MBq (150 μCi) of ^64Cu AOMK probe via the tail vein. At different times p.i., the mice were anesthetized with 2% isoflurane, and placed in the prone position and near the center of the field of view of microPET. The 5 or 10-min static scans were obtained and the images were reconstructed by a two-dimensional ordered subsets expectation maximum (OSEM) algorithm.

cathepsins B and L = experiment: Labeling of intact tumor cells (SDS-PAGE, gel scan); assay type: cell-based, mouse (C2C12/Ras), human (MDA-MB-435); details: C2C12/Ras and MDA-MB-435 cells, 555 KBq probe in culture medium for 2 h
Source text: FIG. 2 is a series of figures which, taken together, show the structure and function of representative in vivo probes. FIG. 2A is a schematic drawing of a chelator—conjugated probe, illustrating several component moieties. FIGS. 2B and 2C are gels showing expression and activity of enzyme targets of such probe, with a radionuclide label attached to the illustrated structure, showing the expression and activity of CB in a mouse myoblast cell line C2C12Ras and human breast cancer cell line MDA-MB-435. […] Cells were pretreated with JPM-OEt (50 μM) (+) or with control DMSO (0.1%) (−) for 2 h and labeled by addition of ^64Cu-Z-FK(DOTA)-AOMK (555 KBq, 15 μCi) to culture medium for 2 h. Cells were collected, lysed and analyzed after SDS-PAGE. The labeled proteases were visualized by scanning of the gel with a Typhoon 9410 imager.
Before applying the radiolabel probe in vivo we first tested the ability of the probe to label multiple tumor cell lines grown in vitro. We initially examined the labeling of the human breast cancer cell line MBA-MB-435 and a mouse myoblastoma cell line that had been transformed by overexpression of the ras oncogene (C2C12/Ras). Both of these cell lines were used for in vivo imaging studies with the NIRF-labeled cysteine cathepsin probes. To confirm earlier studies of these cells using the NIRF probes we labeled them with general Cy5-labeled probe GB123 (FIG. 1C). […] Labeling of the same cells with ^64Cu-Z-FK(DOTA)-AOMK confirmed that the DOTA produced a similar labeling pattern to that observed for the NIRF probe GB123.
C2C12/Ras and MDA-MB-435 cells (0.25 M each well) were seeded in a six-well plate one day before the study. Cells were pretreated with the general papain family protease inhibitor JPM-OEt (50 μM^28) or with control DMSO (0.1%) for 1 h and labeled by addition of ^64Cu-Z-FK(DOTA)-AOMK (555 KBq, 15 μCi) to culture medium for 2 h. Cells was then washed with PBS and lysed. Equal amounts of protein per lane were separated by 12% SDS-PAGE. […] The labeled bands were quantified with ImageJ 1.36b (public domain software from National Institute of Health).

Cc1cccc(C)c1C(=O)OCC(=O)[C@H](CCCCNC(=O)CN1CCN(CC(=O)[O-])CCN(CC(=O)O)CCN(CC(=O)[O-])CC1)NC(=O)[C@H](Cc1ccccc1)NC(=O)OCc1ccccc1.[64Cu+2] [^64Cu-Z-FK(DOTA)-AOMK]
log P (octanol-water partition coefficient) [1]: −0.10±0.04
MicroPET tumor visualization / contrast (C2C12/Ras tumor): clearly visualized with good tumor to contralateral background contrast
Labeling of active cathepsins in intact cells (cathepsins B and L): efficiently modifies active cathepsins B and L
